# Experimental data published in article PMC4773758, “Small Molecule Inhibited Parathyroid Hormone Mediated cAMP Response by N–Terminal Peptide Binding” (Scientific Reports, 2016).
# Legend:
# PTH(1–84) [1] = target: T1, PTH(1–84) (Homo sapiens, UniProt P01270); assay: Fluorescence quenching titration with PTH(1–84); type: binding
# T1 construct: SUMO (N, cleaved yes); His-tag (C); made in house; host or cells: E. coli BL21 codon+
# T1 sequence (P01270 32-115): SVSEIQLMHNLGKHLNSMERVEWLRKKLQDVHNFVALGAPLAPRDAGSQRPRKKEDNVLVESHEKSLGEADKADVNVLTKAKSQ
# Method: (§1) The natural form of parathyroid hormone comprises 84 residues, however, PTH(1–34) is sufficient for receptor activation. PTH contains one tryptophan residue at position 23. Thus it can be used as a highly sensitive fluorescent probe for the analysis of ligand binding by fluorescence spectroscopy. PTH is composed of structured sections mainly from positions 1–37, whereas the C–terminal part is largely unstructured. […] In order to establish the binding a titration experiment was carried out where the PTH(1–34) concentration was kept constant and the concentration of the Zn complex was varied.
# (§2) The fluorescence quenching behavior was analyzed according to the equation given in the experimental section. […] In order to evaluate the interaction at the C–terminal part of the PTH and its role in binding, full length PTH(1–84) was taken and its binding was established.
# (§3) Fluorescence titrations were carried out on a JASCO FP6500. The samples were excited at 280 nm wavelength and the emission spectra were recorded in the range between 290 nm to 450 nm. Experiments were carried out in 10 mM BisTris, 300 mM Na2SO4, 0.02% NaN3, pH 7.2 using a 1 cm path length quartz cell. The concentration of PTH(1–34), PTH(1–84) and nECD-PTH1R used in the titration experiments were 7.4 μM, 8.1 μM and 5 μM, respectively. In a typical titration experiment, 4 μM of Zn complex or 9-anthracenemethanol was added and spectra were recorded after each addition. Zn complex or 9-anthracenemethanol in buffer was used as blank titration and these spectral traces were subtracted from the main titration. The Zn complex or 9-anthracenemethanol was dissolved in dimethyl sulfoxide and further diluted for experiments. The final concentration of DMSO was <1% in any experiment.
# (§4) Fluorescence data were analyzed according to the following equation:
# (§5) with P = (P0 / (V0 + L))V0 and L1 = (L0 / (V0 + L))L and Q – fluorescence intensity, P – protein concentration, L – ligand concentration, V – volume, n – binding sites and 0 – indicates start point.
# [2] = tested on: PTH(1–84) induced cAMP in HEK 293 cells expressing hPTH1R; assay: cAMP accumulation assay, compound pre-incubated with PTH(1–84); type: cell-based, Human
# Description: NMR spectroscopy identified that the Zn complex interacts with the N–terminal part of the peptide hormone. The binding region from residues 1–37 of PTH(84) is important for recognition, interaction with the extracellular loops and trans–membrane helices of the receptor and bringing about activation of the later. There are two principal signal transduction pathways involving the G protein–coupled receptors: the cAMP signal pathway and the phosphatidylinositol signal pathway. Parathyroid hormone is involved in the cAMP pathway for its biological regulation. Because binding of the Zn complex was at the N–terminal part of PTH, it is interesting to investigate the cAMP response towards its receptor in the presence of the Zn complex. Therefore PTH(1–34) and PTH(1–84) induced cAMP accumulation was measured in stable HEK 293 cell lines expressing recombinant PTH1R[33]. A cAMP generation assay was carried out in a Zn complex concentration dependent manner, keeping the cells and peptide hormone concentrations constant. PTH response without Zn complex was considered as 100% cAMP response. The peptide hormones were exposed to Zn complex for 15 minutes to allow for complex formation and subsequently cAMP generation was studied.
# (§6) HEK 293 cells stably expressing hPTH1R were used for the cAMP accumulation assay following the previously reported procedure. The reaction was carried out at 37 °C and fluorescence measurements were taken using a VICTOR X4 2030 plate reader (PerkinElmer Life and Analytical Sciences). A fixed amount of 0.01 μM peptide hormones and 4 × 10^3 cells per well were used to monitor the cAMP response. The Zn complex or 9-anthracenemethanol was diluted form 0.1 μM to 100 μM and incubated for 15 minutes with the peptide hormone before addition of HEK 293 cells. All experiments were performed in triplicate and repeated independently three times. The maximum cAMP response were calculated as a percentage of the maximal response of PTH(1–34) or PTH(1–84). The effect of Zn complex or 9-anthracenemethanol on receptor was evaluated by incubating these with the cells for 15 minutes followed by washing with buffer. These treated cells were added to the reaction mixture containing untreated PTH(1–84) as described above.
# PTH1R in HEK 293 cells = assay: cAMP assay, compound pre-incubated with cells followed by PTH(1–84); type: cell-based, Human; conditions: compound pre-incubated with the cells, then PTH(1–84)
# Method: (§7) The cAMP generation was also analyzed to see the effect of the Zn complex on the receptor itself. Here, the Zn complex was pre-incubated with the cells followed by addition of PTH(1–84). […] In another control experiment cAMP generation was also studied by incubating the 9-anthracenemethanol with the peptide (Figure S9) or directly with the cells (grey bars in Figure S7). […] Additionally, inhibition of cAMP response or cell toxicity was also not observed up to 100 μM of Zn–perchlorate (Figure S10).
# as §6, with “All experiments were performed in triplicate and repeated independently three times.” left out, “These treated cells were added to the reaction mixture containing untreated PTH(1–84) as described above.” left out
# PTH(1–84) [3] = target: T1, PTH(1–84); assay: NMR 1H–15N HSQC titration with 15N–PTH(1–84); type: binding; conditions: pH 5.3, 25 °C
# Description: Preferential binding at residue-level resolution was further investigated by choosing full length ^15N PTH(1–84) to see whether or not the C–terminal region is involved in the Zn complex interaction. […] These NMR spectra indicate that the N–terminal domain of PTH (1–84) binds to the Zn complex whereas the C–terminus part remains solvent exposed and flexible enough to result in observable resonances. […] Histidine 63 is the only exception in the C–terminal part of PTH(1–84) sensing complex formation.
# The spectra were recorded at the concentration of 50 μM of peptide hormones. Subsequently, titration was carried out with the addition of 0.5 μl of 10 mM Zn complex until there was no further change in NMR intensity observed. The spectrum corresponding to the 1:4 complex formations was used for the analysis. For the 9-anthracenemethanol titration experiment 20 μM of PTH was used. A titration was carried out and the 1:4 complex of PTH:9-anthracenemethanol was analyzed in detail. The spectra were corrected for the dilution factor. The previously determined NMR assignments of PTH resonances were used[24][63][64]. The spectra were recorded in the 10 mM BisTris, 300 mM Na2SO4, 0.02% NaN3, pH 5.3, with a Bruker 800 MHz Avance III spectrometer equipped with a CP–TCI cryoprobe at 25 °C. Spectra were processed using the programs NMRPipe and NMR Draw.
# HEK 293 cells = assay: Cell viability, MTT assay; type: cell-based, Human; conditions: up to 100 μM, MTT after 3h
# Method: as §7
# Figure S10: (a) cAMP response and (b) cell viability against Zn–perchlorate. Cell viability was tested after 3h using MTT assay.
# Water solubility = type: physicochemical; conditions: in the absence of the metal
# Description: As GPCRs are involved in many diseases, they are targets for approximately 40% of all human modern medicinal drugs. However, these drugs target only a small fraction (about 10%) of known GPCRs[37]. Within the context of receptors including GPCRs, typically available drug molecules for pharmacological applications directly target the receptors. However, literature is limited with regards to molecules which bind to the agonist to modify its receptor activating function. A potential class of molecules for this purpose could be organic/coordination/mixed–ligand complexes. In mixed–ligand complexes one metal ion can replace another metal ion bearing the original skeletal system. A metal replacement can lead to suppressed or negligible biological responses. […] In principle, Zn(II) is less toxic than Cu(II) and it is redox silent therefore, this metal was chosen in exchange of Cu(II).
# [4] = set-up: method as in PMID 21709916; conditions: cited from earlier work
# cancer cells = tested on: cancer cells; set-up: method as in PMID 21709916; conditions: broad range of cancer cells; cited from earlier work
# PTH(1–34) [5] = target: T2, PTH(1–34) (Homo sapiens, UniProt P01270); assay: Fluorescence quenching titration with PTH(1–34); type: binding
# T2 construct: Human PTH(1–34) and PTH(1–84) were purified as previously reported; SUMO (N, cleaved yes); His-tag (C); made in house; host or cells: E. coli BL21 codon+
# T2 sequence (P01270 32-65 limits assumed): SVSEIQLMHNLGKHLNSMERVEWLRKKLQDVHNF
# Method: as §1, §2, §3, §4, §5
# PTH(1–34) [6] = target: T2, PTH(1–34); assay: ITC with PTH(1–34); type: binding; conditions: 25 °C
# Method: (§8) ITC is a well suited method to evaluate protein-ligand interaction. The interaction of the Zn complex with PTH(1–34) and PTH(1–84) was evaluated by ITC at 25 °C. Zn complex binding was exothermic in nature for both the peptides (Fig. 3b and Figure S4). Data fitting gave n values of 2.28 ± 0.13 and 1.93 ± 0.04 for PTH(1–34) and PTH(1–84), respectively. […] The enthalpic gain counterbalances the unfavorable loss in entropy of the system upon complex binding.
# (§9) The calorimetric titrations were performed at 25 °C with a MicroCal VPITC isothermal titration calorimeter. Small aliquots (7 μl) of the Zn complex were added to a solution of the respective peptide in the calorimeter cell. Successive additions were separated by a 300 second interval to allow the resulting peak from peptide Zn complex interaction to return to the baseline. All of the studies were carried out in 10 mM BisTris, 300 mM Na2SO4, pH 7.2.
# PTH(1–84) [7] = target: T1, PTH(1–84); assay: ITC with PTH(1–84); type: binding; conditions: 25 °C
# Method: as §8, §9
# [8] = tested on: PTH(1–34) induced cAMP in HEK 293 cells expressing hPTH1R; assay: cAMP accumulation assay, compound pre-incubated with PTH(1–34); type: cell-based, Human; conditions: PTH(1–34) 0.01 μM, 15 min pre-incubation with peptide
# Description: NMR spectroscopy identified that the Zn complex interacts with the N–terminal part of the peptide hormone. The binding region from residues 1–37 of PTH(84) is important for recognition, interaction with the extracellular loops and trans–membrane helices of the receptor and bringing about activation of the later. There are two principal signal transduction pathways involving the G protein–coupled receptors: the cAMP signal pathway and the phosphatidylinositol signal pathway. Parathyroid hormone is involved in the cAMP pathway for its biological regulation. […] Therefore PTH(1–34) and PTH(1–84) induced cAMP accumulation was measured in stable HEK 293 cell lines expressing recombinant PTH1R[33]. […]
# HEK 293 cells stably expressing hPTH1R were used for the cAMP accumulation assay following the previously reported procedure. The reaction was carried out at 37 °C and fluorescence measurements were taken using a VICTOR X4 2030 plate reader (PerkinElmer Life and Analytical Sciences). […] The maximum cAMP response were calculated as a percentage of the maximal response of PTH(1–34) or PTH(1–84). The effect of Zn complex or 9-anthracenemethanol on receptor was evaluated by incubating these with the cells for 15 minutes followed by washing with buffer. […]
compound,measurement,setting,value
"OCc1c2ccccc2cc2ccccc12 [9-anthracenemethanol, reference compound]",Kd,PTH(1–84) [1]; fluorescence titration against PTH(1–84),3520 ± 380 µM
same,suppression of intracellular cAMP generation,[2]; compound incubated with the peptide PTH(1–84),significant suppression of intracellular cAMP generation was not observed
same,suppression of cAMP generation,PTH1R in HEK 293 cells,significant suppression of intracellular cAMP generation was not observed
same,change in NMR cross peaks / intensity of PTH(1–84),PTH(1–84) [3],no residue specific NMR intensity loss
"[O-][Cl+3]([O-])([O-])[O-].[O-][Cl+3]([O-])([O-])[O-].[Zn+2] [Zn–perchlorate, reference compound]",change in fluorescence intensity,"PTH(1–84) [1]; up to 200 μM, PTH(1–84)",did not show any significant change
same,inhibition of cAMP response,[2]; up to 100 μM,not observed
same,change in NMR cross peaks / intensity of PTH(1–84),PTH(1–84) [3],did not show a significant change in NMR cross peaks
same,cell toxicity,HEK 293 cells,not observed
c1ccc(-c2cc(-c3c4ccccc4cc4ccccc34)cc(-c3ccccn3)n2)nc1 [anthracenyl terpyridine],water solubility,Water solubility,water insoluble
Cu(II) complex of anthracenyl terpyridine [reference compound],nuclease activity,[4],showed nuclease and antiprolifirative activity
same,antiproliferative activity,cancer cells,showed nuclease and antiprolifirative activity
Zn(II) complex of anthracenyl terpyridine [Zn complex],reduced fluorescence intensity at the end of the titration,"PTH(1–34) [5]; 76 μM of Zn complex, PTH(1–34)",~ 86%
same,CF50 (concentration required for 50% quenching of fluorescence intensity),PTH(1–34) [5]; PTH(1–34),21.46 ± 0.5 µM
same,stoichiometry (numbers of binding sites with equal affinities),"PTH(1–34) [5]; fluorescence quenching, PTH(1–34)",1.9
same,Kd,"PTH(1–34) [5]; fluorescence quenching, PTH(1–34) 7.4 μM, pH 7.2",27 ± 1.8 µM
same,reduced fluorescence intensity at the end of the titration,"PTH(1–84) [1]; 76 μM of Zn complex, PTH(1–84)",~ 75%
same,CF50 (concentration required for 50% quenching of fluorescence intensity),PTH(1–84) [1]; PTH(1–84),31.8 ± 0.8 µM
same,stoichiometry,"PTH(1–84) [1]; fluorescence quenching, PTH(1–84)",2.0
same,Kd,"PTH(1–84) [1]; fluorescence quenching, PTH(1–84) 8.1 μM, pH 7.2",34 ± 1.7 µM
same,Kd,PTH(1–34) [6],55.06 ± 0.06 µM
same,n (ITC),PTH(1–34) [6],2.28 ± 0.13
same,∆H (ITC),PTH(1–34) [6],-5.9 ± 0.1 kcal/mol
same,∆S (ITC),PTH(1–34) [6],−5.37 cal mol^−1K^−1
same,Kd,PTH(1–84) [7],54.1 ± 0.08 µM
same,n (ITC),PTH(1–84) [7],1.93 ± 0.04
same,∆H (ITC),PTH(1–84) [7],-11.25 ± 0.3 kcal/mol
same,∆S (ITC),PTH(1–84) [7],−7.15 cal mol^−1K^−1
same,concentration for complete suppression of the cAMP response,[8],~ 20 μM
same,IC50,[8]; read-out: concentration at which 50% reduced activity (cAMP response) was observed,2 µM
same,concentration for complete suppression of the cAMP response,"[2]; PTH(1–84) 0.01 μM, 15 min pre-incubation with peptide",~ 20 μM
same,IC50,"[2]; PTH(1–84) 0.01 μM, 15 min pre-incubation with peptide, read-out: concentration at which 50% reduced activity (cAMP response) was observed",2 µM
same,suppression of cAMP generation,PTH1R in HEK 293 cells,did not show a significant suppression
same,change in NMR cross peaks / intensity of PTH(1–84),PTH(1–84) [3],binds to N–terminal residues
same,nuclease activity,[4],did not show nuclease or antiprolifirative activities
same,antiproliferative activity,cancer cells,did not show nuclease or antiprolifirative activities
